Consider 27 compounds from article PMC8538004, “Identification of a Novel Neuropeptide S Receptor Antagonist Scaffold Based on the SHA-68 Core” (Pharmaceuticals, 2021).

In one assay the test system is NPSR. The arrangement: method as in PMID 24964000, PMID 20615693, PMID 18337476, PMID 24171469, PMID 20510609. The following applies: Figure 1, known NPSR antagonists; cited from earlier work.
The next assay concerns the target T1, human NPSR-107I (Homo sapiens, UniProt Q6W5P4, N107I).
T1 construct: expressed in transfected cells
T1 sequence (Q6W5P4 1-371 N107I): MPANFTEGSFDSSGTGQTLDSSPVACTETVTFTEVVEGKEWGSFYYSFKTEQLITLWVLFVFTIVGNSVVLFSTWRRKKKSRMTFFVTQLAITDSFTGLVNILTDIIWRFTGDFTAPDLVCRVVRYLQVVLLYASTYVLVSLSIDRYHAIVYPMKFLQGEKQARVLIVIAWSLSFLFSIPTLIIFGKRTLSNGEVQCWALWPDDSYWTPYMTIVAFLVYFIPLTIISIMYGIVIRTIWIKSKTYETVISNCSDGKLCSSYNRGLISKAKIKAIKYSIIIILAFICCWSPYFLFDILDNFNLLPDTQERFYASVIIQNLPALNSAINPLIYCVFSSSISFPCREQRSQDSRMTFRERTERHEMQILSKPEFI
Put plainly: Ca+2 mobilization assay (apparent Ke against NPS). The format is cell-based. The following applies: for Kb: Calcium Mobilization, CHO-Gα16-hNPSR-107I cells, shift of NPS EC50; for Loss of antagonist activity compared to SHA: compared with SHA-66 (Ke = 10 nM); for NPSR antagonist activity in words: calcium mobilization, SAR discussion. The protocol: A stable cell line overexpressing the human NPSR-107I was created in CHO-Gαq16 cells (RD-HGA16, Molecular Devices), as previously described. Briefly, CHO-Gαq16 cells were transfected with pcDNA 3.1 human NPSR-107I using Lipofectamine reagent. Transfected cells were plated into 10 cm^2 dishes 24 h post-transfection and were selected using Geneticin. After 2 weeks, individual clones were selected, grown to confluence, and screened in a functional 96-well calcium mobilization assay that measured the response to NPS (100 nM final). […] A final working clone was chosen for all subsequent studies based on NPS potency and the calcium mobilization signal window. CHO-Gα16-hNPSR-107I cells were cultured in Ham’s F12 media supplemented with 10% FBS, 100 units/mL penicillin, 100 μg/mL streptomycin, 200 μg/mL hygromycin, and 400 μg/mL geneticin. Media were purchased from HyClone (GE Life Sciences); FBS, penicillin/streptomycin, hygromycin, and geneticin were purchased from Invitrogen (Thermo Scientific). The day before the assay, cells were plated into 96-well black-walled assay plates at 25,000–40,000 cells/well in growth medium without selection antibiotics. Cells were incubated overnight at 37 °C, 5% CO2. The FLIPR Calcium 5 assay kit (Molecular Devices) was used according to the manufacturer’s instructions with minor modifications. Briefly, reconstituted dye was diluted in pre-warmed assay buffer (HBSS, 20 mM HEPES, 2.5 mM probenecid, pH 7.4 at 37 °C). Growth medium was removed, and the cells were gently washed with assay buffer. Calcium 5 dye was added to the cells and the plate was incubated for 45 min at 37 °C, 5% CO2. A single concentration of test compound and 10-point concentration–response curves of NPS (ranging from 100 nM to 1 pM) were prepared at 10× the desired final concentration. Cells were pretreated with the test compound or vehicle in a final concentration of 0.25% BSA/1% DMSO for 15 min at 37 °C. Assay plates were read with a FlexStation II instrument (excitation at 485 nm, detection at 525 nm, Molecular Devices). Calcium-mediated changes in fluorescence were monitored every 1.5 s over a 90 s time period. NPS was added during the read and the maximum kinetic […] (SoftMax [Max-Min], Molecular Devices) in relative fluorescent units (RFU) was measured. Data were fitted to a three-parameter logistic curve to generate EC50 values (GraphPad Prism 6.0). Antagonism was quantified by measuring the ratio of equi-active concentrations of agonist measured in the presence or absence of the antagonist. Apparent Ke values were calculated using the equation Ke = [L]/((EC50^+/EC50^−) − 1), where [L] is the concentration of test compound, EC50^+ is the EC50 of NPS with test compound, and EC50^– is the EC50 of NPS alone. Ke values were considered valid when the EC50^+/EC50^− ratio was at least 4. HBSS and HEPES were purchased from Gibco (Thermo Scientific); probenecid, BSA, and DMSO were purchased from Sigma-Aldrich.
(A change in cytosolic calcium serves as a functional read-out for many receptors and channels.)

As a reminder, the IC50 is the concentration that gives 50% inhibition.

`CCC(C)(CCN1CCOCC1)N(Cc1cc2ccccc2n(C)c1=O)C(=O)C1CCCCC1` (stereo not shown) [A]: the IC50 with NPSR is 23 nM.
On to `COc1ccc2c(c1)C(CC1CCOCC1)(c1ccc(Cl)cc1)n1ccnc1-2` (stereo not shown) [B], for which the IC50 with NPSR was 82 nM.
Regarding `O=C(c1ccccc1N1Cn2c(ccc2-c2ccccc2)C1=O)N1CCCCC1` [C], in the assay on NPSR, the IC50 was 10 nM.
As for `O=C1OC(c2ccccc2)(c2ccccc2)C2=C1CCN(C(=O)NCc1ccccc1)C2` [Compound 1, N-Benzyl-1-oxo-3,3-diphenyl-1H,3H,4H,5H,6H,7H-furo[3,4-c]pyridine-5-carboxamide], at human NPSR-107I, the Kb was found to be 522 nM and the “Loss of antagonist activity compared to SHA” value is “roughly 50 fold”.
In the same order, the values of `CCCCNC(=O)N1CCC2=C(C1)C(c1ccccc1)(c1ccccc1)OC2=O` [Compound 2, N-Butyl-1-oxo-3,3-diphenyl-1H,3H,4H,5H,6H,7H-furo[3,4-c]pyridine-5-carboxamide] are 515 nM and “roughly 50 fold”.
`O=C1OC(c2ccccc2)(c2ccccc2)[C@H]2CN(C(=O)NCc3ccccc3)CC[C@@H]12` [Compound 3, (3,7)-N-Benzyl-1-oxo-3,3-diphenyl-octahydrofuro[3,4-c]pyridine-5-carboxamide]: at human NPSR-107I, the Kb turned out to be 761 nM and the “NPSR antagonist activity in words” value is reported as “lacked antagonist activity”.
`CCCCNC(=O)N1CC[C@H]2C(=O)OC(c3ccccc3)(c3ccccc3)[C@H]2C1` [Compound 4, (3,7)-N-Butyl-1-oxo-3,3-diphenyl-octahydrofuro[3,4-c]pyridine-5-carboxamide]: on human NPSR-107I, the “NPSR antagonist activity in words” value is on record as “lacked antagonist activity”.
For `O=C1OC(c2ccccc2)(c2ccccc2)[C@@H]2CN(C(=O)NCc3ccccc3)CC[C@@H]12` [Compound 5, (3,7)-N-Benzyl-1-oxo-3,3-diphenyl-octahydrofuro[3,4-c]pyridine-5-carboxamide], on human NPSR-107I, the Kb amounted to 170 nM.
Same read-out and setting: to `CCCCNC(=O)N1CC[C@H]2C(=O)OC(c3ccccc3)(c3ccccc3)[C@@H]2C1` [Compound 6, (3,7)-N-Butyl-1-oxo-3,3-diphenyl-octahydrofuro[3,4-c]pyridine-5-carboxamide] belongs 260 nM.
Turning to `O=C1OC(c2ccccc2)(c2ccccc2)C2=C1CN(C(=O)NCc1ccccc1)CC2` [Compound 7, N-Benzyl-3-oxo-1,1-diphenyl-1H,3H,4H,5H,6H,7H-furo[3,4-c]pyridine-5-carboxamide], on human NPSR-107I, the Kb came out at 1130 nM and the “NPSR antagonist activity in words” value was “significant loss of potency”.
For the compound `O=C1OC2(C3=C1CCN(C(=O)NCc1ccccc1)C3)c1ccccc1CCc1ccccc12` [Compound 9, N-Benzyl-3-oxo-4,5,6,7-tetrahydro-3H-spiro[furo[3,4-c]pyridine-1,2′-tricyclo[9.4.0.0^{3,8}]pentadecane]-1′(11′),3′,5′,7′,12′,14′-hexaene-6-carboxamide], the Kb at human NPSR-107I came to 1660 nM.
On the same count and under the same terms, to `CCCCC1(c2ccccc2)OC(=O)C2=C1CN(C(=O)NCc1ccccc1)CC2` (stereo not shown) [Compound 11, N-Benzyl-3-butyl-1-oxo-3-phenyl-1H,3H,4H,5H,6H,7H-furo[3,4-c]pyridine-5-carboxamide] belongs 165 nM; to `O=C1OC(Cc2ccccc2)(c2ccccc2)C2=C1CCN(C(=O)NCc1ccccc1)C2` (stereo not shown) [Compound 12, N-3-Dibenzyl-1-oxo-3-phenyl-1H,3H,4H,5H,6H,7H-furo[3,4-c]pyridine-5-carboxamide], 606 nM.
Same read-out and setting: next, `CC(C)(C)CC1(c2ccccc2)OC(=O)C2=C1CN(C(=O)NCc1ccccc1)CC2` (stereo not shown) [Compound 13, N-Benzyl-3-(2,2-dimethylpropyl)-1-oxo-3-phenyl-1H,3H,4H,5H,6H,7H-furo[3,4-c]pyridine-5-carboxamide]: 146 nM; `CC(C)CC1(c2ccccc2)OC(=O)C2=C1CN(C(=O)NCc1ccccc1)CC2` (stereo not shown) [Compound 14, N-Benzyl-3-(2-methylpropyl)-1-oxo-3-phenyl-1H,3H,4H,5H,6H,7H-furo[3,4-c]pyridine-5-carboxamide]: 118 nM; `CC(C)CC1(c2ccccc2)OC(=O)C2=C1CN(C(=O)NCc1ccccc1)CC2` (stereo not shown) [Compound 14a, N-Benzyl-3-(2-methylpropyl)-1-oxo-3-phenyl-1H,3H,4H,5H,6H,7H-furo[3,4-c]pyridine-5-carboxamide]: 432 nM.
On the same count and under the same terms, to `CC(C)CC1(CC(C)C)OC(=O)C2=C1CN(C(=O)NCc1ccccc1)CC2` [Compound 16, N-Benzyl-3,3-bis(2-methylpropyl)-1-oxo-1H,3H,4H,5H,6H,7H-furo[3,4-c]pyridine-5-carboxamide] belongs 734 nM.
In the case of `CC(C)CC1(c2ccc3ccccc3c2)OC(=O)C2=C1CN(C(=O)NCc1ccccc1)CC2` (stereo not shown) [Compound 22, N-Benzyl-3-(2-methylpropyl)-3-(naphthalen-2-yl)-1-oxo-1H,3H,4H,5H,6H,7H-furo[3,4-c]pyridine-5-carboxamide], on human NPSR-107I, the Kb came out at 500 nM.
For `CC(C)CC1(c2ccccc2O)OC(=O)C2=C1CN(C(=O)NCc1ccccc1)CC2` (stereo not shown) [Compound 23, N-Benzyl-3-(2-hydroxyphenyl)-3-(2-methylpropyl)-1-oxo-1H,3H,4H,5H,6H,7H-furo[3,4-c]pyridine-5-carboxamide], the Kb at human NPSR-107I turned out to be 1500 nM.
With `CC(C)CC1(c2ccccc2OCc2ccccc2)OC(=O)C2=C1CN(C(=O)NCc1ccccc1)CC2` (stereo not shown) [Compound 24, N-Benzyl-3-[2-(benzyloxy)phenyl]-3-(2-methylpropyl)-1-oxo-1H,3H,4H,5H,6H,7H-furo[3,4-c]pyridine-5-carboxamide], the Kb at human NPSR-107I came out at 572 nM.
Same read-out and setting: to `CC(C)CC1(c2cccc(Cl)c2)OC(=O)C2=C1CN(C(=O)NCc1ccccc1)CC2` (stereo not shown) [Compound 25, N-Benzyl-3-(3-chlorophenyl)-3-(2-methylpropyl)-1-oxo-1H,3H,4H,5H,6H,7H-furo[3,4-c]pyridine-5-carboxamide] belongs 136 nM.
With `CCCCNC(=O)N1CCC2=C(C1)C(CC(C)C)(c1ccccc1)OC2=O` (stereo not shown) [Compound 26, N-Butyl-3-(2-methylpropyl)-1-oxo-3-phenyl-1H,3H,4H,5H,6H,7H-furo[3,4-c]pyridine-5-carboxamide], on human NPSR-107I, the Kb stood at 238 nM and the “NPSR antagonist activity in words” value was “reduction in potency”.
For the compound `CC(C)CC1(c2ccccc2)OC(=O)C2=C1CN(C(=O)NCCN1CCCCC1)CC2` (stereo not shown) [Compound 27, 3-(2-Methylpropyl)-1-oxo-3-phenyl-N-[2-(piperidin-1-yl)Ethyl]-1H,3H,4H,5H,6H,7H-furo[3,4-c]pyridine-5-carboxamide], at human NPSR-107I, the Kb stood at 566 nM and the “NPSR antagonist activity in words” value is reported as “reduction in potency”.
On the same counts, the results for `CC(C)CC1(c2ccccc2)OC(=O)C2=C1CN(C(=S)NCCN1CCCCC1)CC2` (stereo not shown) [Compound 28, 3-(2-Methylpropyl)-1-oxo-3-phenyl-N-[2-(piperidin-1-yl)ethyl]-1H,3H,4H,5H,6H,7H-furo[3,4-c]pyridine-5-carbothioamide] are 386 nM and “reduction in potency”.
On to `CC(C)CC1(c2ccccc2)OC(=O)N2CCN(C(=O)NCc3ccccc3)CC21` (stereo not shown) [Compound 29, N-Benzyl-3-(2-methylpropyl)-1-oxo-3-phenyl-hexahydro-1H-[1,3]oxazolo[3,4-a]piperazine-5-carboxamide], for which the “NPSR antagonist activity in words” value at human NPSR-107I is “completely inactive”.
For `Cc1c(P(=S)(c2ccccc2)c2ccccc2)n2ccccc2[n+]1C/C=C/c1ccccc1` [D], the IC50 with NPSR was 9.6 nM.
Consider `O=C(NCCN1CCCCC1)N1CCN2C(=O)OC(c3ccccc3)(c3ccccc3)[C@H]2C1` [RTI-118], for which, in the assay on NPSR, the Ke is on record as 36 nM.
